Here are results for two molecules from patent US6395909B1, “Substituted benzopyran derivatives and their use as anticonvulsants” (priority 1998, dated 2002).

The target of data set [1] is novel receptor obtainable from rat forebrain tissue. As to the kind of experiment: Radioligand binding assay, [3H]-Compound A displacement in rat forebrain tissue. Conditions: competition with [3H]-Compound A (usually 20 nM). The procedure:
WO 92/22293 (SmithKline Beecham) discloses compounds having anti-convulsant activity, including inter alia the compound (3R, 4S)-6-acetyl-(4-fluorobenzoylamino)-3,4-dihydro-2,2-dimethyl-2H-1-benzopyran-3-ol (hereinafter referred to as Compound A). […] The affinity of test compounds to the novel receptor site is assessed as follows.
Whole forebrain tissue is obtained from rats. The tissue is first homogenised in buffer (usually 50 mM Tris/HCl, pH 7.4). The homogenised tissue is washed by centrifugation and resuspension in the same buffer, then stored at −70° C. until used.
To carry out the radioligand binding assay, aliquots of tissue prepared as above (usually at a concentration of 1-2 mg protein/ml) are mixed with aliquots of [3H]-Compound A dissolved in buffer. The final concentration of [3H]-Compound A in the mixture is usually 20 nM. The mixture is incubated at room temperature for 1 hour. [3H]-Compound A bound to the tissue is then separated from unbound [3H]-Compound A by filtration through Whatman GF/B glass fibre filters. The filters are then washed rapidly with ice-cold buffer. The amount of radioactivity bound to the tissue trapped on the filters is measured by addition of liquid scintillation cocktail to the filters followed by counting in a liquid scintillation counter. […]

For data set [2], the system named is electrically-induced seizures. As to the kind of experiment: Maximal electroshock seizure threshold (MEST) test. The class given is in vivo. Conditions: rat, intravenous route, solution in 20% PEG, 1 mg/kg, tested 30 min post dosing. The procedure: The maximal electroshock seizure threshold (MEST) test in rodents is particularly sensitive for detecting potential anticonvulsant properties^1. In this model, anticonvulsant agents elevate the threshold to electrically-induced seizures whilst proconvulsants lower the seizure threshold. Rats (naive male, Charles River, U.K. Sprague Dawley strain, 100-150 g) are randomly assigned to groups of 10-20 and dosed orally, intravenously or intraperitoneally at a dose volume of 1 ml/kg with various doses of compound (0.1-300 mg/kg) or vehicle. […] The mean current and standard error required to induce a tonic seizure in 50% (CC50) of the rats in a particular treatment group is determined by the ‘up and down’ method of Dixon and Mood (1948)^2. Statistical comparisons between vehicle- and drug-treated groups are made using the method of Litchfield and Wilcoxon (1949)^3. In control animals the CC50 is usually 20-30 mA. […] If a tonic convulsion does occur, then the current is decreased, and so on until all the animals in the group have been tested. The percentage increase or decrease in CC50 for each group compared to the control is calculated. Studies are carried out using a Hugo Sachs Electronik Constant Current Shock Generator with totally variable control of shock level from 0 to 300 mA and steps of 5-20 mA are usually used. […]
In general terms: Protection in the maximal electroshock model is a classic sign of anticonvulsant action.

On to `CC1(C)Oc2ccc(C(=O)CO)cc2[C@H](NC(=O)c2cc(F)cc(F)c2)[C@H]1O` [Example 1, (3R,4S)-4-(3,5-difluorobenzamido)-3,4-dihydro-2,2-dimethyl-3-hydroxy-6-(2-hydroxyacetyl)-2H-1-benzopyran], for which the melting point (usually the temperature of the solid-liquid transition) is 179.4 °C. This molecule returned a pKi value in data set [1] of 7.35. Also, the “increase in seizure threshold relative to control” value in data set [2] came to 317%.
`CC1(C)Oc2ccc(C(=O)CO)cc2[C@H](NC(=O)c2ccc(F)cc2)[C@H]1O` [Example 3, (3R,4S)-4-(4-fluorobenzamido)-3,4-dihydro-2,2-dimethyl-3-hydroxy-6-(2-hydroxyacetyl)-2H-1-benzopyran] registered a melting point of 216 °C.
